Results: article PMC6776562, “Inhibition of Rac1-dependent forgetting alleviates memory deficits in animal models of Alzheimer’s disease” (Protein & Cell, 2019)
“Also recorded” adds a separate entry of the source. Blank lines part the entries; values can stand above or below the compound they belong to.

Experiments:
[1] = In vitro metabolic stability in human liver microsomes; format: in vitro ADME
Method: (§1) Measurements of metabolic stability can be performed with liver microsomes, which are known to contain the major drug-metabolizing enzymes and UDP-glucuronosyltransferase (Baranczewski et al., [2006]). The in vitro metabolic stability levels of CS7171 and JKF-034 were measured using human, monkey, and mouse liver microsomes. The metabolic half-time (T1/2) and intrinsic clearance (Clint) were assayed using LC-MS analysis. Ketanserin is a potent, orally effective antagonist of endogenous serotonin. Its pharmacological profile is well studied (Brogden and Sorkin, [1990]). In this study, we used ketanserin as a control. If the T1/2 of the tested compound was 30–120 min, the compound was considered to show moderate metabolism in liver microsomes. If the T1/2 value was less than 30 min, the compound was considered to be susceptible to metabolism in liver microsomes.

[2] = In vitro metabolic stability in mouse liver microsomes; format: in vitro ADME
Method: as §1

[3] = In vitro metabolic stability in monkey liver microsomes; format: in vitro ADME
Method: as §1

Rac1 in HEK-293 cells = assay: Rac1 activation in cultured cells detected by G-LISA; format: cell-based; conditions: 10 μg/mL Aβ42 oligomers in culture medium for 2 h
Method: Synthetic wide-type Aβ42 (purchased from AnaSpec) was initially dissolved in hexafluoroisopropanol (Sigma) to 5 mg/mL for subpackaging. Hexafluoroisopropanol was removed by air drying to obtain an Aβ42 peptide film, which was stored at −80 °C. Then, 24 h before the experiment, the peptide film was first re-suspended in DMSO to a concentration of 12.5 mg/mL and then diluted with Dulbecco’s Modified Eagle Medium (DMEM)/F-12 (phenol red-free; Invitrogen) to a final concentration of 500 μg/mL. The HEK-293 cells were cultured in DMEM containing 10% fetal bovine serum (FBS) at 37 °C with 5% CO2. For oligomer treatment, cells were washed with fresh medium and incubated with 10 μg/mL Aβ42 oligomers for 2 h. Cells were washed twice with PBS before they are collected for Rac1 activity detection by G-LISA (BK128, Cytoskeleton) in accordance with the manufacturer’s protocol.

[4] = In vitro blood-brain barrier permeability assay; format: in vitro ADME; conditions: dog, 37 °C, MDR-MDCK
Method: The MDR-MDCK cell line can be used as a fast blood-brain barrier (BBB) model to aid drug discovery (Wang et al., [2005]). In this study, the MDR-MDCK cell line was used to evaluate the permeability coefficients of CS7171 and JKF-034. Briefly, CS7171 and JKF-034 were prepared to final concentrations of 5 μmol/L. The cells were dosed on the basolateral side (B-A) and apical side (A-B) and incubated at 37 °C for 90 min. Each test was performed in duplicate. The apparent permeability coefficient, Papp, was calculated using the following formula: Papp=VA/Area×Time×(drugacceptor,90-min/drugdonor,0-min×Dilution Factor
VA is the volume in the acceptor well, Area is the surface area of the membrane, Time is the total transport time in seconds, [drug]donor, 0-min is the donor drug concentration measured at 0 min; [drug]acceptor, 90-min is the acceptor drug concentration measured at 90 min; dilution factor is the degree of dilution of the donor sample before loading to LC-MS/MS.

Rac1 [5] = biological target: Rac1 (Mus musculus, UniProt P63001); assay: Rac1 activity (Rac1-GTP/total Rac1) in hippocampal tissue by PAK-PBD pull-down and Western blot after drug administration; format: in vivo, APP/PS1 mice
Method: We first assayed Rac1 activity in hippocampal tissues from AD patients and healthy age-matched, non-demented controls (Detailed information is provided in Table 1). The levels of the guanosine triphosphate (GTP)-bound active form of Rac1 were measured using the p21-binding domain (PBD) pull-down assay. The GTP-bound active form of Rac1 was pulled down through the interactive p21-activated kinase (PAK) fragment using PAK-PBD beads and measured using a Western blot assay (Fig. 1A), as described in previous studies (Shuai et al., [2010]; Liu et al., [2016]) from our laboratory and studies conducted by other research groups (Sander et al., [1998]; Barnes et al., [2008]). The total amount of Rac1 and actin were also evaluated using the Western blot analyses (See MATERIALS AND METHODS). […] Since there were no significant differences in total Rac1 levels between the experimental and control groups (See representative Western blot in all relevant figures), the ratio of Rac1-GTP to total Rac1 was taken as a measure of Rac1 activity. […] Consistent with this observation, Rac1 activity was also elevated in the hippocampus of APP/PS1 mice at different age (Fig. 1D). […] This increase was more pronounced in older flies (Fig. S1F).
(§2) Mice were treated with EHop-016 (10 mg/kg), CS7170 (50 mg/kg), CS7171 (50 mg/kg), and JKF-034 (40 mg/kg). These drugs were dissolved in saline (0.9% NaCl) containing 0.5% Tween-80 (Sigma P4780). Each mouse received 200 μL of the solution by intragastric administration once per day (administered at 9:00 am). The drug administration was started seven days before the beginning of the Morris water maze (MWM) task and was continued until the end of the assay. All control groups were fed with vehicle solution.
The hippocampal tissues from human subjects and mice were harvested and stored in a liquid nitrogen tank for biochemical assay. The tissues were homogenized in cold lysis buffer (Merck-Millipore, 20-168). The insoluble debris were removed after centrifugation at 13,000 rpm (for 10 min, at 4 °C). For GTP-bound Rac/Cdc42, lysates were incubated with GST-tagged PAK (p21-activated kinase)-PBD agarose beads (Cytoskeleton, PAK02) overnight at 4 °C. On the second day, the beads were washed three times with lysis buffer before subjecting them to SDS-PAGE (15%) and transferring them onto nitrocellulose membranes (Millipore, HATF00010). The membranes were incubated with primary antibodies (for Rac1: BD Transduction Laboratories, #610650, 1:2,000 dilution; for Cdc42, Santa Cruz Biotechnology, lot No. sc-8401, 1:500 dilution) overnight at 4 °C and with HRP-conjugated goat anti-mouse IgG (Cell Signaling Technology, #7076) for 1 h at room temperature. Intensities of the detected bands were analyzed using ImageJ software (National Institutes of Health). The total amount of Rac1 in the lysate was detected using a routine Western blot procedure. RhoA-GTP levels were measured by using the Rho-GTP monoclonal antibody (New East, lot No. 26904, Dilution: 1:1,000). Information regarding the other antibodies used is as follows: anti-RhoA (67B9), Cell Signaling, lot No. #2117, dilution: 1:1,000; anti-Actin, Clone C4, Millipore, lot No. #3018859, dilution: 1:2,000; anti-Amyloid 1-42 6E10, BioLegend, lot No. 803001, dilution: 1:1,000; anti-Phospho-PAK1 (Ser144)/PAK2 (Ser141), Cell Signaling, lot No. #2606, dilution: 1:1,000.

APP/PS1 mice = assay: Morris water maze (MWM) spatial learning in AD mice; format: in vivo, mouse
Method: as §2
The MWM test, a classic paradigm used to study spatial reference memory, was performed (Vorhees and Williams, [2006]). Briefly, a circular polypropylene water tank (120 cm in diameter) was filled with opaque water and milk (20 °C ± 1 °C) and a transparent platform (15 cm diameter) was submerged (2 cm below the water surface) in the center of one of the four virtually divided quadrants. Distal cues were fixed on the wall of the tank as spatial references. For the classic training paradigm (Figs. 2 and 6), mice were allowed to find the platform within 60 s and to remain on it for at least 5 s. For the modified training paradigm (Fig. 3A), mice were trained over 5 consecutive sessions with a 1-h intervals within one day. After training, mice were returned to their home cages and the memory of the location of the platform was tested at 6 h after training (Fig. 3C–D). A mouse behavior tracking software (ANY-maze software) was used to record data automatically.

[6] = tested on: Aβ42 transgenic flies (elav/Y; UAS-Aβ42/+); assay: Pavlovian olfactory aversive conditioning in AD flies; format: in vivo, Drosophila; conditions: AD flies fed 100 μmol/L EHop-016 for 7 days
Method: (§3) Flies were treated with EHop-016 (Yong-Can Biotech). The EHop-016 was dissolved in dimethyl sulfoxide (DMSO; Sigma, D8418-100ML) to make a 10-mmol/L stock solution. This solution was stored at −20 °C for later use. Before administration, 4% (m/v) sucrose solution was used to dilute the stock solution to a concentration of 100 µmol/L (working solution). After the flies were starved for 3 h in empty vials, they were fed with the working solution for 5 h. Feeding was carried out once per day until testing.
To assess learning and memory, flies underwent classic olfactory aversive conditioning. One- to two-day-old flies were collected and fed with EHop-016 (100 µmol/L) for 7 days. Training and testing were performed at 24 °C with 60% relative humidity. During training, about 100 flies were exposed to an electric shock (unconditioned stimulus [US]) paired with either 3-octanol (>95% purity; Fluka, Sigma-Aldrich) or 4-methylcyclohexanol (>99% purity; Fluka, Sigma-Aldrich) as the conditioned stimulus (CS). Performance was tested using a T-maze apparatus within which 3-octanol and 4-methylcyclohexanol were delivered from opposite arms simultaneously. […] The learning score was calculated as the difference between the number of flies in each arm divided by the sum of flies in both arms immediately after training. Performance index was calculated as the average of two reciprocal tests to avoid odor bias. […]

Rac1 [7] = biological target: Rac1 (Drosophila melanogaster, UniProt P40792); assay: Rac1 activity in fly whole brain lysate by Western blot; format: in vivo; conditions: AD flies; EHop-016 100 μmol/L
Method: as §3
The hippocampal tissues from human subjects and mice were harvested and stored in a liquid nitrogen tank for biochemical assay. The tissues were homogenized in cold lysis buffer (Merck-Millipore, 20-168). The insoluble debris were removed after centrifugation at 13,000 rpm (for 10 min, at 4 °C). For GTP-bound Rac/Cdc42, lysates were incubated with GST-tagged PAK (p21-activated kinase)-PBD agarose beads (Cytoskeleton, PAK02) overnight at 4 °C. […] Intensities of the detected bands were analyzed using ImageJ software (National Institutes of Health). The total amount of Rac1 in the lysate was detected using a routine Western blot procedure. RhoA-GTP levels were measured by using the Rho-GTP monoclonal antibody (New East, lot No. 26904, Dilution: 1:1,000). […]

[8] = tested on: LTP in hippocampal slices of APP/PS1 mice; assay: Long-term potentiation (fEPSP recording) in hippocampal slices; format: cell-based, mouse; conditions: brain slices of 6-month-old APP/PS1 mice; EHop-016 10 μmol/L in ACSF
Method: Acute 300-μm transverse hippocampal slices were prepared using a vibratome (VTS3000, USA). The slices were maintained at room temperature in a submersion chamber in artificial cerebrospinal fluid (ACSF) containing 125 mmol/L NaCl (Sigma, 71376), 2.5 mmol/L KCl (Sigma, P9541), 2 mmol/L CaCl2 (Sigma, 499609), 1 mmol/L MgCl2 (Sigma, M1028), 1.25 mmol/L NaH2PO4 (Sigma, S3139), 24 mmol/L NaHCO3 (Sigma, S5761) (pH = 7.4), and 15 mmol/L glucose (Sigma, G8270), bubbled with 95% O2 and 5% CO2. Slices were incubated for at least 1 h before removal for experiments. Slices were kept in the MED probe for 1 h for attachment to the 16-channel array (MED-PG515A, Alpha MED Sciences; preheated to 33 °C). Extracellular field excitatory post-synaptic potentials (fEPSPs) in the Schaffer collateral pathway were evoked at 0.025 Hz and recorded in the CA1. The fEPSPs were evoked using a stimulation intensity that elicited a 30% maximal response. Data acquisition and analysis were performed using the multi-electrode MED64 hardware and software package (Panasonic). Additional analyses were performed using custom macros running under Igor Pro. The LTP was induced by one train of theta burst stimulation (TBS) consisting of one epoch of 10 trains of five bursts repeated at 5 Hz and delivered at the same intensity as in the baseline recordings. […]

[9] = APP/PS1 mice (eight-month-old), oral CS7171 50 mg/kg, CS7170 50 mg/kg, JKF-034 40 mg/kg once per day

CLint scaled [1]: 39.5 mL/min/kg
half-life [1]: 44.1 min
CLint scaled [2]: 312 mL/min/kg
half-life [2]: 17.5 min
CLint scaled [3]: 111 mL/min/kg
half-life [3]: 18.3 min
Compound: O=C(c1ccc(F)cc1)C1CCN(CCn2c(=O)[nH]c3ccccc3c2=O)CC1 [Ketanserin, reference compound]

Compound: Amyloid-beta 42 [Aβ42]
Rac1 activity in HEK-293 cells (Rac1 in HEK-293 cells): capable of stimulating Rac1 activity

Papp A→B at 90 min, 5 μmol/L ([4]; MDCK-MDR1, A-B): 40.5 ×10⁻⁶ cm/s
Papp B→A at 90 min, 5 μmol/L ([4]; MDCK-MDR1, B-A): 28.6 ×10⁻⁶ cm/s
Compound: COCCc1ccc(OCC(O)CNC(C)C)cc1 (stereo not drawn) [Metoprolol, reference compound]

hippocampal Rac1 activity (Rac1-GTP/total Rac1) (Rac1 [5]; [9]): not and unable to inhibit Rac1 activity
Compound: COc1cc(C=C2C(=O)NN(c3ccc(Cl)c(Cl)c3)C2=O)ccc1O [CS7170]
MWM learning deficit / spatial memory (APP/PS1 mice; [9]): not

total Rac1 expression in hippocampal tissues (Rac1 [5]; 9-month-old AD mice, EHop-016 10 mg/kg): without changing total Rac1 expression
Compound: CCn1c2ccccc2c2cc(Nc3ccnc(NCCCN4CCOCC4)n3)ccc21 [EHop-016]
Rac1 activity (Rac1-GTP/Total Rac1) in hippocampal tissues (Rac1 [5]; 9-month-old AD mice, EHop-016 10 mg/kg, intragastric once per day, 10 days, 10 mg/kg): significantly inhibited Rac1 activity; also recorded: inhibition of Rac1 activity
MWM escape latency / learning deficit (APP/PS1 mice; 9-month-old APP/PS1 mice, EHop-016 10 mg/kg, versus vehicle-treated AD mice, 10 mg/kg): took less time to locate the hidden platform; also recorded: did not significantly differ from that of WT mice; also recorded: mitigated the learning deficit
learning defect in aversive olfactory conditioning [6]: significantly rescued the learning defects; also recorded: rescued the learning defect
Rac1 activity in whole brain lysis (Rac1 [7]): reduced Rac1 activity; also recorded: inhibition of Rac1 activity
total Rac1 expression (Rac1 [7]): without changing the total Rac1 expression
LTP maintenance (fast decay after TBS) [8]: The fast decay was rescued; also recorded: attenuated
